Results reported in ChEMBL document CHEMBL1649464, “Galleria mellonella as a model system to study Acinetobacter baumannii pathogenesis and therapeutics” (2009).
Active and inactive are the calls of the source. No cut-off for these calls is given here.

Tests used:
Acinetobacter baumannii [1] = test: Antibacterial activity against Acinetobacter baumannii A9844 infected in Galleria mellonella caterpillar assessed as prolonged survival rate at 50 mg/kg administered as single dose; assay type: functional, organism-based; parameters: dose 50 mg/kg
Acinetobacter baumannii [2] = test: Antibacterial activity against Acinetobacter baumannii A9844 infected in Galleria mellonella caterpillar assessed as prolonged survival rate at 150 mg/kg administered as single dose; assay type: functional, organism-based; parameters: dose 150 mg/kg
Acinetobacter baumannii [3] = test: Antibacterial activity against Acinetobacter baumannii A9844 infected in Galleria mellonella caterpillar assessed as prolonged survival rate at 60 mg/kg administered as single dose; assay type: functional, organism-based; parameters: dose 60 mg/kg
Acinetobacter baumannii [4] = test: Antibacterial activity against carbapenem-resistant Acinetobacter baumannii A3587 infected in Galleria mellonella caterpillar assessed as prolonged survival rate at 60 mg/kg administered as single dose; assay type: functional
Acinetobacter baumannii [5] = test: Antibacterial activity against Acinetobacter baumannii A9844 infected in Galleria mellonella caterpillar assessed as prolonged survival rate at 6 mg/kg administered as single dose; assay type: functional, organism-based; parameters: dose 6 mg/kg

CN(C)[C@@H]1C(O)=C(C(N)=O)C(=O)[C@@]2(O)C(O)=C3C(=O)c4c(O)cccc4[C@@](C)(O)[C@H]3C[C@@H]12
Activity (Acinetobacter baumannii [1]): inactive

CO/N=C(\C(=O)N[C@@H]1C(=O)N2C(C(=O)O)=C(COC(C)=O)CS[C@H]12)c1csc(N)n1
Activity (Acinetobacter baumannii [2]): inactive

C[C@@H](O)[C@H]1C(=O)N2C(C(=O)O)=C(S[C@@H]3CN[C@H](C(=O)N(C)C)C3)[C@H](C)[C@H]12 [MEROPENEM]
Activity (Acinetobacter baumannii [3]): Active | Activity (Acinetobacter baumannii [4]): <=12%

GENTAMICIN
Activity (Acinetobacter baumannii [5]): Active
